Measured values: ChEMBL document CHEMBL3885861, “Open TG-GATES”

Organism: Rattus norvegicus
Assay: Open TG-GATES - Regimen: Single
Format: toxicity, organism-based, Sprague-Dawley
Parameters: regimen Single, gender Male, age 6 weeks
Settings: in vivo, po, 15 mg/kg, route gavage, dose level Low; for APTT / Bas / Eos / Fbg / Hb / Ht / Lym / MCH / MCHC / MCV / Mono / Neu / PT / Plat / RBC / Ret / WBC: tissue Blood; for KIDNEY_L / KIDNEY_R / KIDNEY_TOTAL: tissue Kidney; for LIVER: tissue Liver; for A/G / ALP / ALT / AST / BUN / CRE / Ca / Cl / DBIL / GLC / IP / K / LDH / Na / PL / RALB / TBIL / TC / TG / TP / gamma-GTP: tissue Plasma

Structure (SMILES): Nc1nc(N)c2nc(-c3ccccc3)c(N)nc2n1
- TERMINAL_BW (3 h): 213.1 g
- APTT (3 h): 16.6 s
- Bas (3 h): 0%
- Eos (3 h): 1%
- Fbg (3 h): 307 mg/dL
- Hb (3 h): 14.2 g/dL
- Ht (3 h): 42.9%
- Lym (3 h): 78.2%
- MCH (3 h): 21.5 pg
- MCHC (3 h): 33%
- MCV (3 h): 65.1 fL
- Mono (3 h): 3.4%
- Neu (3 h): 17%
- PT (3 h): 14.3 s
- Plat (3 h): 129.9 x10_4/uL
- RBC (3 h): 659.2 x10_4/ul
- Ret (3 h): 7.7%
- WBC (3 h): 86.3 x10_2/uL
- KIDNEY_L (3 h): 1 g
- KIDNEY_R (3 h): 1 g
- KIDNEY_TOTAL (3 h): 2 g
- LIVER (3 h): 9.6 g
- A/G (3 h): 0.9
- ALP (3 h): 1340.6 IU/L
- ALT (3 h): 39.8 IU/L
- AST (3 h): 73.2 IU/L
- BUN (3 h): 10.4 mg/dL
- CRE (3 h): 0.2 mg/dL
- Ca (3 h): 11 mg/dL
- Cl (3 h): 105.2 meq/L
- DBIL (3 h): 0.008 mg/dL
- GLC (3 h): 170.2 mg/dL
- IP (3 h): 8.6 mg/dL
- K (3 h): 4.6 meq/L
- LDH (3 h): 56.2 IU/L
- Na (3 h): 141.2 meq/L
- PL (3 h): 144 mg/dL
- RALB (3 h): 2.7 g/dL
- TBIL (3 h): 0.05 mg/dL
- TC (3 h): 76.2 mg/dL
- TG (3 h): 81.4 mg/dL
- TP (3 h): 5.6 g/dL
- gamma-GTP (3 h): 1.2 IU/L
- TERMINAL_BW (6 h): 211.9 g
- APTT (6 h): 16.3 s
- Bas (6 h): 0.4%
- Eos (6 h): 1%
- Fbg (6 h): 292.4 mg/dL
- Hb (6 h): 13.8 g/dL
- Ht (6 h): 41.6%
- Lym (6 h): 76%
- MCH (6 h): 21.2 pg
- MCHC (6 h): 33.2%
- MCV (6 h): 63.9 fL
- Mono (6 h): 2.6%
- Neu (6 h): 19.6%
- PT (6 h): 14.3 s
- Plat (6 h): 117.9 x10_4/uL
- RBC (6 h): 651.8 x10_4/ul
- Ret (6 h): 7.8%
- WBC (6 h): 88.3 x10_2/uL
- KIDNEY_L (6 h): 1 g
- KIDNEY_R (6 h): 1 g
- KIDNEY_TOTAL (6 h): 1.9 g
- LIVER (6 h): 9 g
- A/G (6 h): 1
- ALP (6 h): 1353.4 IU/L
- ALT (6 h): 38.2 IU/L
- AST (6 h): 72.8 IU/L
- BUN (6 h): 9.2 mg/dL
- CRE (6 h): 0.2 mg/dL
- Ca (6 h): 10.8 mg/dL
- Cl (6 h): 105.6 meq/L
- DBIL (6 h): 0.008 mg/dL
- GLC (6 h): 167.8 mg/dL
- IP (6 h): 9.9 mg/dL
- K (6 h): 4.4 meq/L
- LDH (6 h): 56.4 IU/L
- Na (6 h): 142.6 meq/L
- PL (6 h): 138.4 mg/dL
- RALB (6 h): 2.6 g/dL
- TBIL (6 h): 0.062 mg/dL
- TC (6 h): 77 mg/dL
- TG (6 h): 49.8 mg/dL
- TP (6 h): 5.4 g/dL
- gamma-GTP (6 h): 1.2 IU/L
- TERMINAL_BW (9 h): 206.1 g
- APTT (9 h): 16.7 s
- Bas (9 h): 0%
- Eos (9 h): 0.8%
- Fbg (9 h): 322.4 mg/dL
- Hb (9 h): 14 g/dL
- Ht (9 h): 42.2%
- Lym (9 h): 77.6%
- MCH (9 h): 21.2 pg
- MCHC (9 h): 33.2%
- MCV (9 h): 64 fL
- Mono (9 h): 2.4%
- Neu (9 h): 18.2%
- PT (9 h): 13.9 s
- Plat (9 h): 128.2 x10_4/uL
- RBC (9 h): 659.6 x10_4/ul
- Ret (9 h): 7.5%
- WBC (9 h): 82.6 x10_2/uL
- KIDNEY_L (9 h): 1 g
- KIDNEY_R (9 h): 1 g
- KIDNEY_TOTAL (9 h): 2 g
- LIVER (9 h): 8.3 g
- A/G (9 h): 0.9
- ALP (9 h): 1426 IU/L
- ALT (9 h): 39 IU/L
- AST (9 h): 67.4 IU/L
- BUN (9 h): 9.2 mg/dL
- CRE (9 h): 0.2 mg/dL
- Ca (9 h): 10.8 mg/dL
- Cl (9 h): 106.2 meq/L
- DBIL (9 h): 0.006 mg/dL
- GLC (9 h): 163 mg/dL
- IP (9 h): 9.9 mg/dL
- K (9 h): 4.1 meq/L
- LDH (9 h): 47.8 IU/L
- Na (9 h): 143 meq/L
- PL (9 h): 144 mg/dL
- RALB (9 h): 2.7 g/dL
- TBIL (9 h): 0.056 mg/dL
- TC (9 h): 84.8 mg/dL
- TG (9 h): 41.4 mg/dL
- TP (9 h): 5.5 g/dL
- gamma-GTP (9 h): 1.2 IU/L
- TERMINAL_BW (24 h): 226.6 g
- APTT (24 h): 19 s
- Bas (24 h): 0%
- Eos (24 h): 1%
- Fbg (24 h): 289.6 mg/dL
- Hb (24 h): 14 g/dL
- Ht (24 h): 41.7%
- Lym (24 h): 83.6%
- MCH (24 h): 21.1 pg
- MCHC (24 h): 33.6%
- MCV (24 h): 62.7 fL
- Mono (24 h): 1.6%
- Neu (24 h): 12.8%
- PT (24 h): 14 s
- Plat (24 h): 121.6 x10_4/uL
- RBC (24 h): 664.8 x10_4/ul
- Ret (24 h): 6.2%
- WBC (24 h): 84.7 x10_2/uL
- KIDNEY_L (24 h): 1 g
- KIDNEY_R (24 h): 1 g
- KIDNEY_TOTAL (24 h): 2 g
- LIVER (24 h): 10.5 g
- A/G (24 h): 0.9
- ALP (24 h): 1713.2 IU/L
- ALT (24 h): 44.8 IU/L
- AST (24 h): 67.4 IU/L
- BUN (24 h): 15.2 mg/dL
- CRE (24 h): 0.2 mg/dL
- Ca (24 h): 11 mg/dL
- Cl (24 h): 105.4 meq/L
- DBIL (24 h): 0.012 mg/dL
- GLC (24 h): 183.2 mg/dL
- IP (24 h): 8.3 mg/dL
- K (24 h): 4.1 meq/L
- LDH (24 h): 58.4 IU/L
- Na (24 h): 143.6 meq/L
- PL (24 h): 153.2 mg/dL
- RALB (24 h): 2.7 g/dL
- TBIL (24 h): 0.044 mg/dL
- TC (24 h): 79.4 mg/dL
- TG (24 h): 87.8 mg/dL
- TP (24 h): 5.4 g/dL
- gamma-GTP (24 h): 1 IU/L
